Results as given in ChEMBL document CHEMBL5291721, “A preclinical secondary pharmacology resource illuminates target-adverse drug reaction associations of marketed drugs” (Nat Commun, 2023).

Experiments:
[1] = target: T1, Alpha-2B adrenergic receptor (Homo sapiens, UniProt P18089)
T1 sequence (P18089 whole entry): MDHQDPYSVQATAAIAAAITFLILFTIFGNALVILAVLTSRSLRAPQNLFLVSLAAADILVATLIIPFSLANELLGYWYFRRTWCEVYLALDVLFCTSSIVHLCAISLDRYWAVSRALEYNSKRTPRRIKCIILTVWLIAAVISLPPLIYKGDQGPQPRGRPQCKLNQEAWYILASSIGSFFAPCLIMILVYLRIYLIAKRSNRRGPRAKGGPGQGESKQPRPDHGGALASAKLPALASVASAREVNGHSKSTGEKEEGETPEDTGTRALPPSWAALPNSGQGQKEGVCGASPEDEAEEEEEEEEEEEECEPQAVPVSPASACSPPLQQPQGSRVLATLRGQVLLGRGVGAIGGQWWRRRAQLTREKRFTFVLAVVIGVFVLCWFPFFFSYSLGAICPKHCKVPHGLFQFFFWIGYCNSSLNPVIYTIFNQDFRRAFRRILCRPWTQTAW

[2] = target: T2, Alpha-2C adrenergic receptor (Homo sapiens, UniProt P18825); type: functional
T2 sequence (P18825 whole entry): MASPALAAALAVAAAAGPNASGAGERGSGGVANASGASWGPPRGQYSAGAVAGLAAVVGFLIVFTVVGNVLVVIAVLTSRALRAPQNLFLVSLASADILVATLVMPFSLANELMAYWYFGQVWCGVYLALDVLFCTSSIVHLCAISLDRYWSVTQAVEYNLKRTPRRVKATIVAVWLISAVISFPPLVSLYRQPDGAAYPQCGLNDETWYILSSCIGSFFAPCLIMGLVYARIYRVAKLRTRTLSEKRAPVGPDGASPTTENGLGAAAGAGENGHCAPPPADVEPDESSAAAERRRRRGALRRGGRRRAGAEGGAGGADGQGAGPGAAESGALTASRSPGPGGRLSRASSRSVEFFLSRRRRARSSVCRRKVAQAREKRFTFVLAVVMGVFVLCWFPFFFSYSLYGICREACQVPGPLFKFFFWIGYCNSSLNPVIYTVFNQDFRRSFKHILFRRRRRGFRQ

[3] = target: T3, B2 bradykinin receptor (Homo sapiens, UniProt P30411)
T3 sequence (P30411 whole entry): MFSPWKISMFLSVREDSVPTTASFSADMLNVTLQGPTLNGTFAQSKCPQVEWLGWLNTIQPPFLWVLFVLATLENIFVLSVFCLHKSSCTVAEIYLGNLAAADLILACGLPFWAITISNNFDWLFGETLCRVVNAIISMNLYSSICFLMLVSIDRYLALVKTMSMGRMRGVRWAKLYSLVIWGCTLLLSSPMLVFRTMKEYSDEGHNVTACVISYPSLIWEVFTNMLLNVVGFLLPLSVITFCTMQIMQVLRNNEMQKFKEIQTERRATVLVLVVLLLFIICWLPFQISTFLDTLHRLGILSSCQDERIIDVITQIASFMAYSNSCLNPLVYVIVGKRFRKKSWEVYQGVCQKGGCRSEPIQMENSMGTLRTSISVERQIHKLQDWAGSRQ

[4] = target: T4, Muscarinic acetylcholine receptor M1 (Homo sapiens, UniProt P11229); type: functional
T4 sequence (P11229 whole entry): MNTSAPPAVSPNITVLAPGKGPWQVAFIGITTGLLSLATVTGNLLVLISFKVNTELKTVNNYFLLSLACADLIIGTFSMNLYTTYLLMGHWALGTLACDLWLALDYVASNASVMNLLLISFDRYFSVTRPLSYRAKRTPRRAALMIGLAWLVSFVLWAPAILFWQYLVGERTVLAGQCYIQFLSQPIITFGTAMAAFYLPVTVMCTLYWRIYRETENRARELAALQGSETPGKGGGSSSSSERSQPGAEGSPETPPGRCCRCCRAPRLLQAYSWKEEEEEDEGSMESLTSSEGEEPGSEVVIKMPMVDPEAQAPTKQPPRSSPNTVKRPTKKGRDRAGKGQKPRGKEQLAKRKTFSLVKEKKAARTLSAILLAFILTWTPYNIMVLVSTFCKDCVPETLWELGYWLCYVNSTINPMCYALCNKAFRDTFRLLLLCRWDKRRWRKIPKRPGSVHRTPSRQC

[5] = target: D(1A) dopamine receptor (Homo sapiens, UniProt P21728); type: functional, cell-based
[6] = target: Gamma-aminobutyric acid receptor subunit alpha-1 (Rattus norvegicus, UniProt P62813)
[7] = target: Histamine H2 receptor (Homo sapiens, UniProt P25021); type: functional, cell-based
[8] = target: Histamine H3 receptor (Homo sapiens, UniProt Q9Y5N1)
[9] = target: T5, Equilibrative nucleoside transporter 1 (Homo sapiens, UniProt Q99808)
T5 sequence (Q99808 whole entry): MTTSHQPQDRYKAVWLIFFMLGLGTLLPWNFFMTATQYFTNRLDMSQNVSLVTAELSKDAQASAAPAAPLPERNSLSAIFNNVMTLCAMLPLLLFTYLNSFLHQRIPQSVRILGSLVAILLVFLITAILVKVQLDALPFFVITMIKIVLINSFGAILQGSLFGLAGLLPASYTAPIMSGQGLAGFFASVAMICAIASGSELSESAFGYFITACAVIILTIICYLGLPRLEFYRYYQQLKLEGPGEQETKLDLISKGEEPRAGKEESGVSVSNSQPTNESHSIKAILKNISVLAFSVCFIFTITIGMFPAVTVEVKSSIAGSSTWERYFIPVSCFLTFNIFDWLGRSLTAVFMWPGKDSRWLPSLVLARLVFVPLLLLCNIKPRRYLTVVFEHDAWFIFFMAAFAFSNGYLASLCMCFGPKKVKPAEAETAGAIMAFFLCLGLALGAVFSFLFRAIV

[10] = target: T6, Alpha-1A adrenergic receptor (Homo sapiens, UniProt P35348); type: functional, cell-based
T6 sequence (P35348 whole entry): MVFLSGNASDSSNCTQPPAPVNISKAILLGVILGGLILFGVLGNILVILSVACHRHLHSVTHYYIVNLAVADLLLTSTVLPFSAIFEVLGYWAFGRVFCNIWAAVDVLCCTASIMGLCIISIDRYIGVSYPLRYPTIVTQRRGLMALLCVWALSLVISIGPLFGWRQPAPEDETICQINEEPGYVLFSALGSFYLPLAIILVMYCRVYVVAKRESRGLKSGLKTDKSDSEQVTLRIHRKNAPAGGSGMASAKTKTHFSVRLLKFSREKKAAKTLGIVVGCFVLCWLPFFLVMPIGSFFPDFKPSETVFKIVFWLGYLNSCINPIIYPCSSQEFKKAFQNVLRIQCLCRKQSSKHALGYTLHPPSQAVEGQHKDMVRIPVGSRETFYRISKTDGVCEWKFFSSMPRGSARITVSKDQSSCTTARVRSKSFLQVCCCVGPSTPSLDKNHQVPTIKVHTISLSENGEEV
Also: assay procedure not described here.

Sequence of Histamine H3 receptor (Q9Y5N1 whole entry): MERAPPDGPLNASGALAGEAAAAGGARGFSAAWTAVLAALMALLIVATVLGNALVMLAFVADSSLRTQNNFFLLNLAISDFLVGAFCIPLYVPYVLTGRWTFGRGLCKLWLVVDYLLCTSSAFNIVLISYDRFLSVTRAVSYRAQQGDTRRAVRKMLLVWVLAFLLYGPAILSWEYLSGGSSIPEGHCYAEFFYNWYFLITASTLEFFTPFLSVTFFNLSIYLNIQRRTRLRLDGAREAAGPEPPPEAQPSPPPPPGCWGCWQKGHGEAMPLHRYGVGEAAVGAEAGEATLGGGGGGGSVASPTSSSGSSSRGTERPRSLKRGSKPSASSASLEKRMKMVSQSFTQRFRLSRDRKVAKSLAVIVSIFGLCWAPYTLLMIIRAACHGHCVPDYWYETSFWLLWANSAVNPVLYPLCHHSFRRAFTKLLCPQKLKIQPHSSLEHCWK
Sequence of Histamine H2 receptor (P25021 whole entry): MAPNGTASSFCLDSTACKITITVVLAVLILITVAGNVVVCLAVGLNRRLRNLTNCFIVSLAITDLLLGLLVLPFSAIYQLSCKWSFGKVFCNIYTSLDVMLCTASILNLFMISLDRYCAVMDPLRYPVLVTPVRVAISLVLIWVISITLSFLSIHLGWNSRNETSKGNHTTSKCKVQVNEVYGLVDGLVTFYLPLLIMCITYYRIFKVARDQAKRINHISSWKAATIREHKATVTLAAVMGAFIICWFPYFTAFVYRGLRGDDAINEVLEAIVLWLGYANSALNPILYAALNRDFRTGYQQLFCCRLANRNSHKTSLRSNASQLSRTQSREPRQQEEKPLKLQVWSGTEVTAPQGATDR
Sequence of Gamma-aminobutyric acid receptor subunit alpha-1 (P62813 whole entry): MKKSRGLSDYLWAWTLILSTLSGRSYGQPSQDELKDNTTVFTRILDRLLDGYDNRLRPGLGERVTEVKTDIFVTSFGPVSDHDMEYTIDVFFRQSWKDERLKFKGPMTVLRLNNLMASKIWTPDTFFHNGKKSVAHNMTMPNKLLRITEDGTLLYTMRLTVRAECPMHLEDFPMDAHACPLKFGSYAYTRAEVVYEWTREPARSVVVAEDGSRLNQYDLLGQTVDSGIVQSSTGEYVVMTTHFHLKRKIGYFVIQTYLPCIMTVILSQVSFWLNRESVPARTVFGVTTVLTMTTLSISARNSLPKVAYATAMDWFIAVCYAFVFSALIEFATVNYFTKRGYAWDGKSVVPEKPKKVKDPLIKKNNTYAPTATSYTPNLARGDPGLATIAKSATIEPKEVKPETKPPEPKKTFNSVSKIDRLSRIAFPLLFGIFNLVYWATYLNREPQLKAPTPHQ
Sequence of D(1A) dopamine receptor (P21728 whole entry): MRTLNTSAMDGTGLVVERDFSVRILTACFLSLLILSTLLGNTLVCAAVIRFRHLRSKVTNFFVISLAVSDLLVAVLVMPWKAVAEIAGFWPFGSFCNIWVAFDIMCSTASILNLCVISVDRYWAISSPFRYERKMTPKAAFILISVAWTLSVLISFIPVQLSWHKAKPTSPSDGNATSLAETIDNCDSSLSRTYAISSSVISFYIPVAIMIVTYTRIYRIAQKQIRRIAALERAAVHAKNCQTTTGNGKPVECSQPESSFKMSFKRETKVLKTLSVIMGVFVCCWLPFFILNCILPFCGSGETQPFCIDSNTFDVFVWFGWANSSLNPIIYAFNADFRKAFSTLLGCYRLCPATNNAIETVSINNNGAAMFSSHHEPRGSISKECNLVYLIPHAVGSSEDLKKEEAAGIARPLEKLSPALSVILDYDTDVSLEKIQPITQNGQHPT

SMILES	AC50 [1]	AC50 [2]	AC50 [3]	AC50 [4]	AC50 [5]	AC50 [6]	AC50 [7]	AC50 [8]	AC50 [9]	AC50 [10]
C#CCOc1ccc(N)cc1C(=O)NCCCC [PARSALMIDE]	> 30 µM	> 30 µM	> 30 µM	> 30 µM	> 30 µM	> 30 µM	> 30 µM	> 30 µM		
OCc1cc(C(O)CNCCCCCCOCCCCc2ccccc2)ccc1O (configuration not stated) [SALMETEROL]	13 µM	> 10 µM	> 30 µM	> 10 µM	> 30 µM	> 10 µM	> 10 µM	> 10 µM	> 30 µM	
Nc1cc(-c2ccncc2)c[nH]c1=O [INAMRINONE]		> 10 µM	> 30 µM		> 10 µM	> 10 µM	> 10 µM	> 10 µM	> 30 µM	> 30 µM
COc1cc2c(cc1OC)C(CCc1ccc(Cl)cc1)N(C)CC2 (configuration not stated) [METHOPHOLINE]	> 10 µM	> 10 µM	> 30 µM	> 10 µM	> 10 µM	> 10 µM	> 10 µM	> 30 µM	> 30 µM	
CN(C(=O)c1c(O)c2ccccc2n(C)c1=O)c1ccccc1 [ROQUINIMEX]		> 30 µM		> 30 µM						> 30 µM
CC(=O)[C@]1(O)Cc2c(O)c3c(c(O)c2[C@@H](O[C@H]2C[C@H](N)[C@H](O)[C@H](C)O2)C1)C(=O)c1ccccc1C3=O [IDARUBICIN]			> 10 µM		> 30 µM	> 30 µM	> 30 µM	> 30 µM	> 30 µM	
Oc1ccc2c(c1)[C@@]13CCCC[C@@]1(O)[C@@H](C2)N(CC1CCC1)CC3 [BUTORPHANOL]	> 30 µM	> 30 µM	> 30 µM	> 30 µM	> 30 µM		> 30 µM	> 30 µM	> 30 µM	> 30 µM
O=C(O)CCNC(=O)c1ccccc1 [BETAMIPRON]		> 30 µM	> 30 µM		> 30 µM	> 30 µM	> 30 µM	> 30 µM	> 30 µM	> 30 µM
C/C(=C\C(=O)OCCCCCCCCC(=O)O)C[C@@H]1OC[C@H](C[C@@H]2O[C@H]2[C@@H](C)[C@H](C)O)[C@@H](O)[C@H]1O [MUPIROCIN]	> 10 µM	> 10 µM	> 10 µM	> 10 µM	> 10 µM	> 10 µM	> 10 µM	> 10 µM	> 30 µM	
C=C[C@@]1(C)CC(=O)[C@]2(O)[C@@]3(C)[C@@H](O)CCC(C)(C)[C@@H]3[C@H](O)[C@H](OC(C)=O)[C@@]2(C)O1 [COLFORSIN]	> 30 µM	> 30 µM	> 30 µM	> 30 µM		> 30 µM		> 30 µM	> 30 µM	> 30 µM
